Key:
HL-60 = assay: Cytotoxicity against human HL60 cells after 72 hrs by MTT assay; type: functional, cell-based; conditions: HL-60, 72 h
[1] = Cytotoxicity against human HL60/A cells after 72 hrs by MTT assay; type: functional, cell-based
[2] = Induction of apoptosis in human HL60/A cells assessed as viable cells at 50 uM after 24 hrs by annexin V/propidium iodide based flow cytometry (reference value: 95.2 %); type: functional; conditions: read-out: Activity
[3] = Induction of apoptosis in human HL60/A cells assessed as early apoptotic cells at 50 uM after 24 hrs by annexin V/propidium iodide based flow cytometry (reference value: 2.66 %); type: functional
[4] = Induction of apoptosis in human HL60/A cells assessed as late apoptotic cells at 50 uM after 24 hrs by annexin V/propidium iodide based flow cytometry (reference value: 1.82 %); type: functional
[5] = Induction of apoptosis in human HL60/A cells assessed as necrotic cells at 50 uM after 24 hrs by annexin V/propidium iodide based flow cytometry (reference value: 0.282 %); type: functional
[6] = Induction of apoptosis in human HL60/A cells assessed as viable cells at 20 uM after 24 hrs by annexin V/propidium iodide based flow cytometry (reference value: 95.2 %); type: functional; conditions: read-out: Activity
[7] = Induction of apoptosis in human HL60/A cells assessed as early apoptotic cells at 20 uM after 24 hrs by annexin V/propidium iodide based flow cytometry (reference value: 2.66 %); type: functional
[8] = Induction of apoptosis in human HL60/A cells assessed as late apoptotic cells at 20 uM after 24 hrs by annexin V/propidium iodide based flow cytometry (reference value: 1.82 %); type: functional
[9] = Induction of apoptosis in human HL60/A cells assessed as necrotic cells at 20 uM after 24 hrs by annexin V/propidium iodide based flow cytometry (reference value: 0.282 %); type: functional
[10] = Induction of apoptosis in human HL60/A cells assessed as viable cells at 10 uM after 24 hrs by annexin V/propidium iodide based flow cytometry (reference value: 95.2 %); type: functional; conditions: read-out: Activity
[11] = Induction of apoptosis in human HL60/A cells assessed as late apoptotic cells at 10 uM after 24 hrs by annexin V/propidium iodide based flow cytometry (reference value: 1.82 %); type: functional
[12] = Induction of apoptosis in human HL60/A cells assessed as necrotic cells at 10 uM after 24 hrs by annexin V/propidium iodide based flow cytometry (reference value: 0.282 %); type: functional
[13] = Induction of apoptosis in human HL60/A cells assessed as early apoptotic cells at 10 uM after 24 hrs by annexin V/propidium iodide based flow cytometry (reference value: 2.66 %); type: functional

CC[Si](CC)(CC)O[C@]1(C)CCC2=C(C)CC[C@H]3/C(=C\c4ccc(Cl)cc4)C(=O)O[C@@H]3[C@H]21
IC50 (HL-60): > 50 µM | IC50 [1]: > 50 µM

C=C1CC[C@H]2C(=C)CC[C@H]3/C(=C/c4ccc(CC)cc4)C(=O)O[C@@H]3[C@@H]12
IC50 (HL-60): > 50 µM | IC50 [1]: > 50 µM

C=C1CC[C@H]2C(=C)CC[C@H]3/C(=C\c4ccc(F)cc4)C(=O)O[C@@H]3[C@@H]12
IC50 (HL-60): > 50 µM | IC50 [1]: > 50 µM

CCc1ccc(/C=C2/C(=O)O[C@H]3[C@H]2CCC(C)=C2CC[C@@](C)(O[Si](CC)(CC)CC)[C@@H]23)cc1
IC50 (HL-60): 45 µM | IC50 [1]: 9.2 µM

CCc1ccc(/C=C2\C(=O)O[C@H]3[C@H]2CCC(C)=C2CC[C@@](C)(O)[C@@H]23)cc1
IC50 (HL-60): > 50 µM | IC50 [1]: > 50 µM

C=C1CC[C@H]2C(=C)CC[C@H]3/C(=C\c4ccccc4F)C(=O)O[C@@H]3[C@@H]12
IC50 (HL-60): > 50 µM | IC50 [1]: > 50 µM

CCc1ccc(/C=C2/C(=O)O[C@H]3[C@H]2CCC(C)=C2CC[C@@](C)(O)[C@@H]23)cc1
viability at 50 µM [2]: 0.94% | Activity [3]: 1.5% | Activity [4]: 85.9% | Activity [5]: 11.7% | viability at 20 µM [6]: 66% | Activity [7]: 4.66% | Activity [8]: 23.8% | Activity [9]: 5.51% | viability at 10 µM [10]: 89.2% | Activity [11]: 6.61% | Activity [12]: 1.03% | Activity [13]: 3.14% | IC50 (HL-60): 31 µM | IC50 [1]: 6.2 µM

CC[Si](CC)(CC)O[C@]1(C)CCC2=C(C)CC[C@H]3/C(=C\c4ccc(F)cc4)C(=O)O[C@@H]3[C@H]21
IC50 (HL-60): > 50 µM | IC50 [1]: > 50 µM

C=C1CC[C@H]2C(=C)CC[C@H]3/C(=C\c4cccc(C(F)(F)F)c4)C(=O)O[C@@H]3[C@@H]12
IC50 (HL-60): 24 µM | IC50 [1]: 17 µM

CC[Si](CC)(CC)O[C@]1(C)CCC2=C(C)CC[C@H]3/C(=C/c4ccc(F)cc4)C(=O)O[C@@H]3[C@H]21
IC50 (HL-60): > 50 µM | IC50 [1]: > 50 µM

CCc1ccc(/C=C2\C(=O)O[C@H]3[C@H]2CCC(C)=C2CC[C@@](C)(O[Si](CC)(CC)CC)[C@@H]23)cc1
IC50 (HL-60): > 50 µM | IC50 [1]: 19 µM

CC1=C2CC[C@@](C)(O)[C@@H]2[C@H]2OC(=O)/C(=C\c3ccccc3F)[C@@H]2CC1
IC50 (HL-60): > 50 µM | IC50 [1]: > 50 µM

COc1cccc2c1C(=O)c1c(O)c3c(c(O)c1C2=O)C[C@@](O)(C(=O)CO)C[C@@H]3O[C@H]1C[C@H](N)[C@H](O)[C@H](C)O1 [DOXORUBICIN]
IC50 (HL-60): 0.07 µM | IC50 [1]: 7.8 µM

C=C1CC[C@H]2C(=C)CC[C@H]3/C(=C/c4cccc(C(F)(F)F)c4)C(=O)O[C@@H]3[C@@H]12
IC50 (HL-60): > 50 µM | IC50 [1]: > 50 µM

CC1=C2CC[C@@](C)(O)[C@@H]2[C@H]2OC(=O)/C(=C\c3ccc(F)cc3)[C@@H]2CC1
IC50 (HL-60): > 50 µM | IC50 [1]: > 50 µM

CC[Si](CC)(CC)O[C@]1(C)CCC2=C(C)CC[C@H]3/C(=C/c4cccc(F)c4)C(=O)O[C@@H]3[C@H]21
IC50 (HL-60): 52 µM | IC50 [1]: 10 µM

C=C1CC[C@H]2C(=C)CC[C@H]3/C(=C/c4ccc(F)cc4)C(=O)O[C@@H]3[C@@H]12
IC50 (HL-60): > 50 µM | IC50 [1]: > 50 µM

CC[Si](CC)(CC)O[C@]1(C)CCC2=C(C)CC[C@H]3/C(=C/c4ccccc4F)C(=O)O[C@@H]3[C@H]21
IC50 (HL-60): 32 µM | IC50 [1]: 7.8 µM

C=C1CC[C@H]2C(=C)CC[C@H]3/C(=C\c4cc(OC)c(OC)c(OC)c4)C(=O)O[C@@H]3[C@@H]12
IC50 (HL-60): > 50 µM | IC50 [1]: > 50 µM

C=C1CC[C@H]2C(=C)CC[C@H]3/C(=C\c4ccccc4)C(=O)O[C@@H]3[C@@H]12
IC50 (HL-60): > 50 µM | IC50 [1]: > 50 µM

CC[Si](CC)(CC)O[C@]1(C)CCC2=C(C)CC[C@H]3/C(=C\c4ccccc4F)C(=O)O[C@@H]3[C@H]21
IC50 (HL-60): > 50 µM | IC50 [1]: > 50 µM

C=C1C(=O)O[C@H]2[C@H]1CCC(C)=C1CC[C@@](C)(O[Si](CC)(CC)CC)[C@@H]12
IC50 (HL-60): 8.4 µM | IC50 [1]: 7.2 µM

CC1=C2CC[C@@](C)(O)[C@@H]2[C@H]2OC(=O)/C(=C\c3cccc(F)c3)[C@@H]2CC1
IC50 (HL-60): > 50 µM | IC50 [1]: > 50 µM

CC1=C2CC[C@@](C)(O)[C@@H]2[C@H]2OC(=O)/C(=C\c3ccc(Cl)cc3)[C@@H]2CC1
IC50 (HL-60): > 50 µM | IC50 [1]: > 50 µM

CC1=C2CC[C@@](C)(O)[C@@H]2[C@H]2OC(=O)/C(=C/c3ccc(F)cc3)[C@@H]2CC1
IC50 (HL-60): > 50 µM | IC50 [1]: > 50 µM

C=C1CC[C@H]2C(=C)CC[C@H]3/C(=C/c4ccccc4F)C(=O)O[C@@H]3[C@@H]12
IC50 (HL-60): > 50 µM | IC50 [1]: > 50 µM

CC1=C2CC[C@@](C)(O)[C@@H]2[C@H]2OC(=O)/C(=C/c3ccc(Cl)cc3)[C@@H]2CC1
IC50 (HL-60): > 50 µM | IC50 [1]: > 50 µM

CC[Si](CC)(CC)O[C@]1(C)CCC2=C(C)CC[C@H]3/C(=C/c4ccc(Cl)cc4)C(=O)O[C@@H]3[C@H]21
IC50 (HL-60): > 50 µM | IC50 [1]: > 50 µM

CC1=C2CC[C@@](C)(O)[C@@H]2[C@H]2OC(=O)/C(=C/c3ccccc3F)[C@@H]2CC1
IC50 (HL-60): > 50 µM | IC50 [1]: > 50 µM

C=C1CC[C@H]2C(=C)CC[C@H]3/C(=C\c4ccc(CC)cc4)C(=O)O[C@@H]3[C@@H]12
IC50 (HL-60): > 50 µM | IC50 [1]: > 50 µM

C=C1CC[C@H]2C(=C)CC[C@H]3/C(=C/c4ccc(Cl)cc4)C(=O)O[C@@H]3[C@@H]12
IC50 (HL-60): > 50 µM | IC50 [1]: > 50 µM

C=C1CC[C@H]2C(=C)CC[C@H]3/C(=C\c4ccc(Cl)cc4)C(=O)O[C@@H]3[C@@H]12
IC50 (HL-60): > 50 µM | IC50 [1]: > 50 µM

CC1=C2CC[C@@](C)(O)[C@@H]2[C@H]2OC(=O)/C(=C/c3cccc(F)c3)[C@@H]2CC1
IC50 (HL-60): > 50 µM | IC50 [1]: 32 µM

C=C1CC[C@H]2C(=C)CC[C@H]3/C(=C/c4ccccc4)C(=O)O[C@@H]3[C@@H]12
IC50 (HL-60): > 50 µM | IC50 [1]: > 50 µM

C=C1CC[C@H]2C(=C)CC[C@H]3/C(=C/c4cc(OC)c(OC)c(OC)c4)C(=O)O[C@@H]3[C@@H]12
IC50 (HL-60): > 50 µM | IC50 [1]: > 50 µM

CC[Si](CC)(CC)O[C@]1(C)CCC2=C(C)CC[C@H]3/C(=C\c4cccc(F)c4)C(=O)O[C@@H]3[C@H]21
IC50 (HL-60): > 50 µM | IC50 [1]: > 50 µM
